Conditions: dynamic light scattering

COC(C)(C)C [2-methoxy-2-methylpropane]
thermal diffusivity [m2/s]
Conditions	Gas	Liquid
303.15 K, 101.33 kPa	–	6.4e-08
303.15 K, 1500 kPa	–	6.66e-08
303.15 K, 2500 kPa	–	6.7e-08
303.15 K, 4000 kPa	–	6.75e-08
303.15 K, 5500 kPa	–	6.79e-08
303.15 K, 7000 kPa	–	6.81e-08
303.15 K, 8500 kPa	–	6.83e-08
303.15 K, 10000 kPa	–	6.85e-08
313.15 K, 101.33 kPa	–	6.17e-08
318.15 K, 1500 kPa	–	6.29e-08
318.15 K, 2500 kPa	–	6.32e-08
318.15 K, 4000 kPa	–	6.37e-08
318.15 K, 5500 kPa	–	6.4e-08
318.15 K, 7000 kPa	–	6.44e-08
318.15 K, 8500 kPa	–	6.47e-08
318.15 K, 10000 kPa	–	6.49e-08
323.15 K, 101.33 kPa	–	5.87e-08
333.15 K, 101.33 kPa	–	5.7e-08
333.15 K, 1500 kPa	–	5.94e-08
333.15 K, 2500 kPa	–	5.97e-08
333.15 K, 4000 kPa	–	6e-08
333.15 K, 5500 kPa	–	6.05e-08
333.15 K, 7000 kPa	–	6.09e-08
333.15 K, 8500 kPa	–	6.15e-08
333.15 K, 10000 kPa	–	6.21e-08
343.15 K, 101.33 kPa	–	5.42e-08
348.15 K, 1500 kPa	–	5.62e-08
348.15 K, 2500 kPa	–	5.63e-08
348.15 K, 4000 kPa	–	5.68e-08
348.15 K, 5500 kPa	–	5.72e-08
348.15 K, 7000 kPa	–	5.78e-08
348.15 K, 8500 kPa	–	5.85e-08
348.15 K, 10000 kPa	–	5.92e-08
353.15 K, 101.33 kPa	–	5.26e-08
363.15 K, 101.33 kPa	–	5.05e-08
363.15 K, 1500 kPa	–	5.33e-08
363.15 K, 2500 kPa	–	5.34e-08
363.15 K, 4000 kPa	–	5.38e-08
363.15 K, 5500 kPa	–	5.43e-08
363.15 K, 7000 kPa	–	5.5e-08
363.15 K, 8500 kPa	–	5.57e-08
363.15 K, 10000 kPa	–	5.68e-08
373.15 K, 101.33 kPa	–	4.83e-08
378.15 K, 1500 kPa	–	5.06e-08
378.15 K, 2500 kPa	–	5.07e-08
378.15 K, 4000 kPa	–	5.1e-08
378.15 K, 5500 kPa	–	5.15e-08
378.15 K, 7000 kPa	–	5.23e-08
378.15 K, 8500 kPa	–	5.32e-08
378.15 K, 10000 kPa	–	5.44e-08
383.15 K, 101.33 kPa	–	4.72e-08
393.15 K, 101.33 kPa	–	4.64e-08
393.15 K, 1500 kPa	–	4.83e-08
393.15 K, 2500 kPa	–	4.83e-08
393.15 K, 4000 kPa	–	4.86e-08
393.15 K, 5500 kPa	–	4.92e-08
393.15 K, 7000 kPa	–	4.99e-08
393.15 K, 8500 kPa	–	5.09e-08
393.15 K, 10000 kPa	–	5.21e-08
403.15 K, 101.33 kPa	–	4.55e-08
403.15 K, 1500 kPa	–	4.68e-08
403.15 K, 2500 kPa	–	4.69e-08
403.15 K, 4000 kPa	–	4.71e-08
403.15 K, 5500 kPa	–	4.77e-08
403.15 K, 7000 kPa	–	4.85e-08
403.15 K, 8500 kPa	–	4.95e-08
403.15 K, 10000 kPa	–	5.08e-08
413.1 K, 1500 kPa	–	4.54e-08
413.1 K, 2500 kPa	–	4.55e-08
413.1 K, 4000 kPa	–	4.58e-08
413.1 K, 5500 kPa	–	4.64e-08
413.1 K, 7000 kPa	–	4.72e-08
413.1 K, 8500 kPa	–	4.82e-08
413.1 K, 10000 kPa	–	4.95e-08
413.15 K, 101.33 kPa	–	4.48e-08
423.15 K, 101.33 kPa	–	4.38e-08
423.15 K, 1500 kPa	–	4.42e-08
423.15 K, 2500 kPa	–	4.43e-08
423.15 K, 4000 kPa	–	4.46e-08
423.15 K, 5500 kPa	–	4.51e-08
423.15 K, 7000 kPa	–	4.59e-08
423.15 K, 8500 kPa	–	4.7e-08
423.15 K, 10000 kPa	–	4.83e-08
433.15 K, 101.33 kPa	–	4.31e-08
433.15 K, 1500 kPa	–	4.32e-08
433.15 K, 2500 kPa	–	4.32e-08
433.15 K, 4000 kPa	–	4.36e-08
433.15 K, 5500 kPa	–	4.41e-08
433.15 K, 7000 kPa	–	4.49e-08
433.15 K, 8500 kPa	–	4.59e-08
433.15 K, 10000 kPa	–	4.72e-08
443.15 K, 101.33 kPa	–	4.18e-08
443.15 K, 2500 kPa	–	4.23e-08
443.15 K, 4000 kPa	–	4.26e-08
443.15 K, 5500 kPa	–	4.31e-08
443.15 K, 7000 kPa	–	4.39e-08
443.15 K, 8500 kPa	–	4.49e-08
443.15 K, 10000 kPa	–	4.61e-08
453.15 K, 101.33 kPa	2.36e-07	4.05e-08
453.15 K, 2500 kPa	–	4.15e-08
453.15 K, 4000 kPa	–	4.18e-08
453.15 K, 5500 kPa	–	4.23e-08
453.15 K, 7000 kPa	–	4.3e-08
453.15 K, 8500 kPa	–	4.4e-08
453.15 K, 10000 kPa	–	4.51e-08
455.15 K, 101.33 kPa	2.06e-07	–
457.15 K, 101.33 kPa	1.87e-07	–
458.15 K, 101.33 kPa	–	3.91e-08
458.15 K, 2500 kPa	–	4.11e-08
458.15 K, 4000 kPa	–	4.15e-08
458.15 K, 5500 kPa	–	4.2e-08
458.15 K, 7000 kPa	–	4.27e-08
458.15 K, 8500 kPa	–	4.36e-08
458.15 K, 10000 kPa	–	4.47e-08
459.15 K, 101.33 kPa	1.72e-07	–
461.15 K, 101.33 kPa	1.62e-07	–
463.15 K, 101.33 kPa	1.54e-07	3.86e-08
463.15 K, 2500 kPa	–	4.08e-08
463.15 K, 4000 kPa	–	4.11e-08
463.15 K, 5500 kPa	–	4.16e-08
463.15 K, 7000 kPa	–	4.23e-08
463.15 K, 8500 kPa	–	4.32e-08
463.15 K, 10000 kPa	–	4.43e-08
465.15 K, 101.33 kPa	1.47e-07	–
467.15 K, 101.33 kPa	1.38e-07	–
468.15 K, 101.33 kPa	–	3.66e-08
468.15 K, 2500 kPa	–	4.05e-08
468.15 K, 4000 kPa	–	4.09e-08
468.15 K, 5500 kPa	–	4.14e-08
468.15 K, 7000 kPa	–	4.2e-08
468.15 K, 8500 kPa	–	4.28e-08
468.15 K, 10000 kPa	–	4.38e-08
469.15 K, 101.33 kPa	1.31e-07	–
471.15 K, 101.33 kPa	1.22e-07	–
473.15 K, 101.33 kPa	1.14e-07	3.55e-08
473.15 K, 2500 kPa	–	4.02e-08
473.15 K, 4000 kPa	–	4.06e-08
473.15 K, 5500 kPa	–	4.11e-08
473.15 K, 7000 kPa	–	4.18e-08
473.15 K, 8500 kPa	–	4.25e-08
473.15 K, 10000 kPa	–	4.34e-08
475.15 K, 101.33 kPa	1.05e-07	3.47e-08
477.15 K, 101.33 kPa	9.7e-08	3.36e-08
479.15 K, 101.33 kPa	8.8e-08	3.36e-08
481.15 K, 101.33 kPa	7.8e-08	3.3e-08
483.15 K, 101.33 kPa	7e-08	3.22e-08
483.15 K, 4000 kPa	–	4.02e-08
483.15 K, 5500 kPa	–	4.07e-08
483.15 K, 7000 kPa	–	4.12e-08
483.15 K, 8500 kPa	–	4.19e-08
483.15 K, 10000 kPa	–	4.27e-08
485.15 K, 101.33 kPa	6.2e-08	3.07e-08
487.15 K, 101.33 kPa	5.6e-08	3.02e-08
489.15 K, 101.33 kPa	5e-08	2.95e-08
491.15 K, 101.33 kPa	4.3e-08	2.81e-08
493.15 K, 101.33 kPa	3.1e-08	2.73e-08
493.15 K, 4000 kPa	–	3.99e-08
493.15 K, 5500 kPa	–	4.03e-08
493.15 K, 7000 kPa	–	4.08e-08
493.15 K, 8500 kPa	–	4.14e-08
493.15 K, 10000 kPa	–	4.21e-08

Source: the NIST ThermoML archive (doi:10.1021/je5008394)
